Measured values reported in PubChem BioAssay (NCI).
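1) Cells in 96-well plates. 2) Compound, 48 h, 5 concentrations. 3) Linear interpolation between surrounding doses. 4) Unreached endpoint = highest concentration. Abbreviation: GI50, concentration required for 50% inhibition of growth. Definition used: TGI = concentration required for complete inhibition of growth.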

Assays:
Assay in all cases: NCI-60 cell line screen, 48 h
786-0 renal = system: 786-0 renal
SK-MEL-5 melanoma = system: SK-MEL-5 melanoma
HCT-15 colon = system: HCT-15 colon
COLO 205 colon = system: COLO 205 colon
NCI-H460 lung = system: NCI-H460 lung
SK-MEL-2 melanoma = system: SK-MEL-2 melanoma
HT29 colon = system: HT29 colon
U251 CNS = system: U251 CNS
HL-60(TB) leukemia = system: HL-60(TB) leukemia
MDA-MB-231 breast = system: MDA-MB-231 breast
HOP-92 NSCLC = system: HOP-92 NSCLC
OVCAR-4 ovarian = system: OVCAR-4 ovarian
BT-549 breast = system: BT-549 breast
OVCAR-3 ovarian = system: OVCAR-3 ovarian
K-562 leukemia = system: K-562 leukemia
SK-MEL-28 melanoma = system: SK-MEL-28 melanoma
LOX IMVI melanoma = system: LOX IMVI melanoma
MALME-3M melanoma = system: MALME-3M melanoma
SR leukemia = system: SR leukemia
A498 renal = system: A498 renal
IGROV1 ovarian = system: IGROV1 ovarian
SF-539 CNS = system: SF-539 CNS
M14 melanoma = system: M14 melanoma
SF-295 CNS = system: SF-295 CNS
NCI-H226 lung = system: NCI-H226 lung
NCI/ADR-RES ovarian = system: NCI/ADR-RES ovarian
HS 578T breast = system: HS 578T breast
PC-3 prostate = system: PC-3 prostate
NCI-H23 lung = system: NCI-H23 lung
SK-OV-3 ovarian = system: SK-OV-3 ovarian
DU-145 prostate = system: DU-145 prostate
MCF7 breast = system: MCF7 breast
EKVX NSCLC = system: EKVX NSCLC
TK-10 renal = system: TK-10 renal
SN12C renal = system: SN12C renal
SW-620 colon = system: SW-620 colon
SNB-19 CNS = system: SNB-19 CNS
OVCAR-5 ovarian = system: OVCAR-5 ovarian
HCC-2998 colon = system: HCC-2998 colon
RPMI-8226 leukemia = system: RPMI-8226 leukemia
ACHN renal = system: ACHN renal
UACC-257 melanoma = system: UACC-257 melanoma
UACC-62 melanoma = system: UACC-62 melanoma
CAKI-1 renal = system: CAKI-1 renal
CCRF-CEM leukemia = system: CCRF-CEM leukemia
MDA-MB-435 = system: MDA-MB-435
HCT-116 colon = system: HCT-116 colon
KM12 colon = system: KM12 colon
OVCAR-8 ovarian = system: OVCAR-8 ovarian
T-47D breast = system: T-47D breast
MOLT-4 leukemia = system: MOLT-4 leukemia
NCI-H522 lung = system: NCI-H522 lung
UO-31 renal = system: UO-31 renal
SF-268 CNS = system: SF-268 CNS
HOP-62 NSCLC = system: HOP-62 NSCLC
SNB-75 CNS = system: SNB-75 CNS
A549 NSCLC = system: A549 NSCLC
RXF 393 renal = system: RXF 393 renal

In the case of `CN1CCN(CCCCCN=c2cc3c(=O)n(CCCCCN4CCN(C)CC4)c(=O)c4c(NCCCCCN5CCN(C)CC5)cc5c(O)n(CCCCCN6CCN(C)CC6)c(=O)c2c5c4-3)CC1`, the GI50 (786-0 renal) is reported as > 100 µM, the TGI (786-0 renal) is reported as > 100 µM and the GI50 (SK-MEL-5 melanoma) is reported as 14.1 µM. For the same compound, the TGI (SK-MEL-5 melanoma) was 58.8 µM, the GI50 (HCT-15 colon) was > 100 µM and the TGI (HCT-15 colon) was > 100 µM. The GI50 (COLO 205 colon) was 2.31 µM, the TGI (COLO 205 colon) was 8.07 µM and the GI50 (NCI-H460 lung) was 3.06 µM. It also gave a TGI (NCI-H460 lung) of 10.2 µM, a GI50 (SK-MEL-2 melanoma) of 2.69 µM and a TGI (SK-MEL-2 melanoma) of 7.43 µM. It also gave a GI50 (HT29 colon) of 1.45 µM, a TGI (HT29 colon) of 5.31 µM and a GI50 (U251 CNS) of 2.21 µM. The TGI (U251 CNS) was 6.68 µM, the GI50 (HL-60(TB) leukemia) was 7.16 µM and the TGI (HL-60(TB) leukemia) was 59 µM. The GI50 (MDA-MB-231 breast) was 2.38 µM, the TGI (MDA-MB-231 breast) was 7.22 µM and the GI50 (HOP-92 NSCLC) was 1.84 µM. It also gave a TGI (HOP-92 NSCLC) of 7.39 µM, a GI50 (OVCAR-4 ovarian) of 2.22 µM and a TGI (OVCAR-4 ovarian) of 5.61 µM. For the same compound, the GI50 (BT-549 breast) was 4.34 µM, the TGI (BT-549 breast) was 15.7 µM and the GI50 (OVCAR-3 ovarian) was 3.23 µM. The TGI (OVCAR-3 ovarian) was 9.92 µM, the GI50 (K-562 leukemia) was 3.62 µM and the TGI (K-562 leukemia) was > 100 µM. The GI50 (SK-MEL-28 melanoma) was 2.96 µM, the TGI (SK-MEL-28 melanoma) was 8.14 µM and the GI50 (LOX IMVI melanoma) was 2.94 µM. For the same compound, the TGI (LOX IMVI melanoma) was 12.8 µM, the GI50 (MALME-3M melanoma) was 2.55 µM and the TGI (MALME-3M melanoma) was 5.98 µM. It also gave a GI50 (SR leukemia) of 4.01 µM, a TGI (SR leukemia) of 25.1 µM and a GI50 (A498 renal) of 19.2 µM. The TGI (A498 renal) was 60 µM, the GI50 (IGROV1 ovarian) was 5.7 µM and the TGI (IGROV1 ovarian) was 29.4 µM. It also gave a GI50 (SF-539 CNS) of 2.64 µM, a TGI (SF-539 CNS) of 8.32 µM and a GI50 (M14 melanoma) of 35 µM. For the same compound, the TGI (M14 melanoma) was > 100 µM, the GI50 (SF-295 CNS) was 15.7 µM and the TGI (SF-295 CNS) was 57.2 µM. The GI50 (NCI-H226 lung) was 3.25 µM, the TGI (NCI-H226 lung) was 21.6 µM and the GI50 (NCI/ADR-RES ovarian) was > 100 µM. The TGI (NCI/ADR-RES ovarian) was > 100 µM, the GI50 (HS 578T breast) was 2.64 µM and the TGI (HS 578T breast) was 6.86 µM. For the same compound, the GI50 (PC-3 prostate) was 3.32 µM, the TGI (PC-3 prostate) was 19.4 µM and the GI50 (NCI-H23 lung) was 6.65 µM. It also gave a TGI (NCI-H23 lung) of 46.3 µM, a GI50 (SK-OV-3 ovarian) of 2.03 µM and a TGI (SK-OV-3 ovarian) of 5.62 µM. For the same compound, the GI50 (DU-145 prostate) was 3.08 µM, the TGI (DU-145 prostate) was 10.3 µM and the GI50 (MCF7 breast) was 2.52 µM. For the same compound, the TGI (MCF7 breast) was 7.41 µM, the GI50 (EKVX NSCLC) was 2.93 µM and the TGI (EKVX NSCLC) was 17.2 µM. The GI50 (TK-10 renal) was 10.6 µM, the TGI (TK-10 renal) was 77.2 µM and the GI50 (SN12C renal) was 2.55 µM. The TGI (SN12C renal) was 9.73 µM, the GI50 (SW-620 colon) was 3.31 µM and the TGI (SW-620 colon) was 31.6 µM. For the same compound, the GI50 (SNB-19 CNS) was 2.14 µM, the TGI (SNB-19 CNS) was 7.16 µM and the GI50 (OVCAR-5 ovarian) was 2.13 µM. The TGI (OVCAR-5 ovarian) was 7.79 µM, the GI50 (HCC-2998 colon) was 5.79 µM and the TGI (HCC-2998 colon) was 24.4 µM. The GI50 (RPMI-8226 leukemia) was 3.02 µM, the TGI (RPMI-8226 leukemia) was 11.3 µM and the GI50 (ACHN renal) was 43.3 µM. The TGI (ACHN renal) was > 100 µM, the GI50 (UACC-257 melanoma) was 2.6 µM and the TGI (UACC-257 melanoma) was 6.56 µM. The GI50 (UACC-62 melanoma) was 4.19 µM, the TGI (UACC-62 melanoma) was 15.7 µM and the GI50 (CAKI-1 renal) was > 100 µM. The TGI (CAKI-1 renal) was > 100 µM, the GI50 (CCRF-CEM leukemia) was 2.69 µM and the TGI (CCRF-CEM leukemia) was 26 µM. It also gave a GI50 (MDA-MB-435) of 2.7 µM, a TGI (MDA-MB-435) of 8.73 µM and a GI50 (HCT-116 colon) of 3.31 µM. It also gave a TGI (HCT-116 colon) of 17.3 µM, a GI50 (KM12 colon) of 2.49 µM and a TGI (KM12 colon) of 8.39 µM. The GI50 (OVCAR-8 ovarian) was 3.92 µM, the TGI (OVCAR-8 ovarian) was 17.2 µM and the GI50 (T-47D breast) was 3.59 µM. For the same compound, the TGI (T-47D breast) was 25.4 µM, the GI50 (MOLT-4 leukemia) was 4.85 µM and the TGI (MOLT-4 leukemia) was > 100 µM. For the same compound, the GI50 (NCI-H522 lung) was 1.46 µM, the TGI (NCI-H522 lung) was 3.93 µM and the GI50 (UO-31 renal) was 75 µM. For the same compound, the TGI (UO-31 renal) was > 100 µM, the GI50 (SF-268 CNS) was 2.07 µM and the TGI (SF-268 CNS) was 6.09 µM. It also gave a GI50 (HOP-62 NSCLC) of 2.45 µM, a TGI (HOP-62 NSCLC) of 12.2 µM and a GI50 (SNB-75 CNS) of 2.66 µM. The TGI (SNB-75 CNS) was 10.2 µM, the GI50 (A549 NSCLC) was 2.92 µM and the TGI (A549 NSCLC) was 8.64 µM. The GI50 (RXF 393 renal) was 24.3 µM and the TGI (RXF 393 renal) was > 100 µM.
